Here are results for eleven compounds from ChEMBL document CHEMBL1129779, “A novel class of antagonists for metabotropic glutamate receptors, 7-(Hydroxyimino)cyclopropa[b]chromen-1a-carboxylates” (Bioorg Med Chem Lett, 1996).

In the first assay the target is T1, Metabotropic glutamate receptor 1 (Homo sapiens, UniProt Q13255). Kind of assay: Compound was tested for inhibition of glutamate-evoked (10 uM) [Ca2+] mobilization in Metabotropic glutamate receptor 1 expressed-CHO cells; NE: No effect at 1-100 uM. In kind it is cell-based.
T1 sequence (Q13255 whole entry): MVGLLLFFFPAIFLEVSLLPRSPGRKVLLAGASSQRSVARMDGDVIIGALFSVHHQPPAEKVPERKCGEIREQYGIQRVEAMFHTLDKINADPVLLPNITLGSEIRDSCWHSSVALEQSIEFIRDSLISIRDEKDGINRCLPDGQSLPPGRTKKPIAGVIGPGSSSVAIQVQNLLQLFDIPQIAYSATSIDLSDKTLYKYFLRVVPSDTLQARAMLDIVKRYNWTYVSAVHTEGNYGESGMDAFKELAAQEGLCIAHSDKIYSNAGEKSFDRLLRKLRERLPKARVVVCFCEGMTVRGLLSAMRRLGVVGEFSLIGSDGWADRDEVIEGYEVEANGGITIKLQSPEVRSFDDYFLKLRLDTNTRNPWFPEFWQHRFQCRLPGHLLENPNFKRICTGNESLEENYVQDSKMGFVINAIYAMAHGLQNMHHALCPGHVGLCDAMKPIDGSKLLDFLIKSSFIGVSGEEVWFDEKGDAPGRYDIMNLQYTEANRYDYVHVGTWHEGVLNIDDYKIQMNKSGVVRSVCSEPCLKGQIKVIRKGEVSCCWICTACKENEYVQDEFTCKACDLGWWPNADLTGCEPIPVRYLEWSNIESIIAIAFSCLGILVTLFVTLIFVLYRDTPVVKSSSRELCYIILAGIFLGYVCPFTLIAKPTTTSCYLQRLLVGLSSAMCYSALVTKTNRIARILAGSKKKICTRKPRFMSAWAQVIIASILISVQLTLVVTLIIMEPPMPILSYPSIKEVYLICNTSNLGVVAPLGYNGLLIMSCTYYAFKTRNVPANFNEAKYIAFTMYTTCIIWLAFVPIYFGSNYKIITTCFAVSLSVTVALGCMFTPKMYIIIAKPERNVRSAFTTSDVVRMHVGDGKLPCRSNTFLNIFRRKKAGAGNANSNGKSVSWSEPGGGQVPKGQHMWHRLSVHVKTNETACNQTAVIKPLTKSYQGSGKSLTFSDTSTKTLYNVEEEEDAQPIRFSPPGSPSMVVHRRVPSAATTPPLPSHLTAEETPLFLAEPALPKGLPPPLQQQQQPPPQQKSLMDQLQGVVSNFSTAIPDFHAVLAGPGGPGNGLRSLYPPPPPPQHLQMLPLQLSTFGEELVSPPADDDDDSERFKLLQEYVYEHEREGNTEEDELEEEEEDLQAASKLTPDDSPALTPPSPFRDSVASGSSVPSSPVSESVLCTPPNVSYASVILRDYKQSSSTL
As a reminder, the IC50 is the point on the concentration scale where inhibition reaches its midpoint. Regarding `O=C1c2ccccc2OC2(C(=O)Nc3ccccc3)CC12` (stereo unspecified), the IC50 entry is on record as “No effect”. Still for that read-out and setting: to `CCOC(=O)C12CC1C(=O)c1ccccc1O2` (stereo unspecified) belongs “No effect”. Turning to `CCOC(=O)c1cc(=O)c2ccccc2o1`, the IC50 result was “No effect”. Consider `CN(C(=O)C12CC1C(=O)c1ccccc1O2)c1ccccc1` (stereo unspecified), for which the half-inhibitory concentration (IC50) result is reported as “No effect”.

For the compound `CN(C(=O)c1cc(=O)c2ccccc2o1)c1ccccc1`, the IC50 result is “No effect”. The same measure, in the same setting: under `O=C(Nc1ccccc1)c1cc(=O)c2ccccc2o1` stands “No effect”.

In another assay the target is T1, Metabotropic glutamate receptor 1. Kind of assay: Compound was tested for inhibition of glutamate-evoked (10 uM) [Ca2+] mobilization in mGluR1-alpha expressed-CHO cells. Type of assay: cell-based.
With `NC(C(=O)O)c1ccc(C(=O)O)c(O)c1` (stereo unspecified), it took 200 µM to reach half-maximal inhibition (IC50).

Compound `CCOC(=O)C12CC1/C(=N\O)c1ccccc1O2` (stereo unspecified) registered an IC50 of 23 µM.

In turn, `CN(C(=O)C12CC1/C(=N\O)c1ccccc1O2)c1ccccc1` (stereo unspecified) had a half-maximal inhibitory concentration (IC50) of 10 µM. `O=C(Nc1ccccc1)C12CC1/C(=N\O)c1ccccc1O2` (stereo unspecified): the IC50 stood at 3 µM. `CC(N)(C(=O)O)c1ccc(C(=O)O)cc1` (stereo unspecified): 700 µM corresponded to half-maximal inhibition (IC50).
